A word on the Ki: it is a measure of affinity in units of concentration, obtained from inhibition or displacement.

The target in assay [1] is T1, Somatostatin receptor type 2 (Homo sapiens, UniProt P30874). As to the kind of experiment: Displacement of [125I]tyr11-SRIF from human sst2 receptor after 60 mins by liquid scintillation counting method.
In assay [2] the target is T2, Somatostatin receptor type 4 (Homo sapiens, UniProt P31391). As to the kind of experiment: Displacement of [125I]tyr11-SRIF from human sst4 receptor after 60 mins by liquid scintillation counting method. (Loss of bound radioactivity is the signal in a displacement assay; it reports binding, not function.)
T2 sequence (P31391 whole entry): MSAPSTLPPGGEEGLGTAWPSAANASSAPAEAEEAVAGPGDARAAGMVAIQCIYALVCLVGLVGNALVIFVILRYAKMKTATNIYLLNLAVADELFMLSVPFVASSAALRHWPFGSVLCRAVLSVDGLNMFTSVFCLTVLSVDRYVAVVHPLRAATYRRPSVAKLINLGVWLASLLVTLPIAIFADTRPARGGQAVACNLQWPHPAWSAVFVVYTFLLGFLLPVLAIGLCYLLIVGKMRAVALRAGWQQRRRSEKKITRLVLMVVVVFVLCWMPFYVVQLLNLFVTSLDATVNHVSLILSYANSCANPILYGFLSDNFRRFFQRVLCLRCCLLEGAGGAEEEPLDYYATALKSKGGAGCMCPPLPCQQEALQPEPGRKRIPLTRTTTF
In assay [3] the target is T1, Somatostatin receptor type 2. As to the kind of experiment: Binding affinity to human sst2 receptor.
Assay [4] deals with T2, Somatostatin receptor type 4. As to the kind of experiment: Binding affinity to human sst4 receptor.
Assay [5] has the same target. As to the kind of experiment: Displacement of [125I]-SRIF14 from human sst4 receptor.

The structures appear in SMILES notation.

T1 sequence (P30874 whole entry): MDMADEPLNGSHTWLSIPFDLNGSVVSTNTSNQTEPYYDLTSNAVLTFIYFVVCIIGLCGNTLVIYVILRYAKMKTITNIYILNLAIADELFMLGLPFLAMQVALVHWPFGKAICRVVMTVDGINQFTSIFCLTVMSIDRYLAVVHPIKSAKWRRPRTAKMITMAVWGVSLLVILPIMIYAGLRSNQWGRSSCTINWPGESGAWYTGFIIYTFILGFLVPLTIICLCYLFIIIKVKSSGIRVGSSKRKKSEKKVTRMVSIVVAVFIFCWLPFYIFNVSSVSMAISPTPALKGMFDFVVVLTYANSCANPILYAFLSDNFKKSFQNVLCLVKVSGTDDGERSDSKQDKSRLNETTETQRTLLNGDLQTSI

For the molecule `NCCCc1cc(Cl)cc2c1OC(CCc1cccc3ccccc13)CC2=O` (racemic), the values for the Ki in assay [1] and in assay [2] were 6.85 µM and 7.09 µM, respectively.
In the case of `NCCCc1cc(Cl)cc2c(=O)cc(CCc3cccc4ccccc34)oc12`, the Ki in assay [1] was determined as 2.66 µM; in assay [2] it was 1.17 µM.
As for `NCCCCCOc1ccccc1OCCc1c[nH]c2ccccc12`, the Ki in assay [3] stood at 4.69 µM; in assay [4] it was 2020 nM.
In assay [5], `CC(C)CC[C@]1(Cc2ccccc2)NC=C([C@@]2(Cc3ccccc3)NC=C([C@]3(CCCN)NC=C([C@@]4(CC(C)C)NC=C(Cc5ccccc5)C4=O)C3=O)C2=O)C1=O` came in with a Ki of 2050 nM.
